Test results from PubChem BioAssay (NCI).
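How tested: cells in 96-well plates exposed to compound for 48 hours at five concentrations. Abbreviation: GI50, concentration required for 50% inhibition of growth. TGI marks complete inhibition of growth.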

Legend:
Assay in all cases: inhibition of tumour cell growth, NCI panel, 48 h
SR leukemia = test system: SR leukemia
U251 CNS = test system: U251 CNS
HCT-15 colon = test system: HCT-15 colon
SN12C renal = test system: SN12C renal
HOP-92 NSCLC = test system: HOP-92 NSCLC
BT-549 breast = test system: BT-549 breast
EKVX NSCLC = test system: EKVX NSCLC
PC-3 prostate = test system: PC-3 prostate
MCF7 breast = test system: MCF7 breast
MDA-MB-231 breast = test system: MDA-MB-231 breast
NCI-H23 lung = test system: NCI-H23 lung
SK-MEL-2 melanoma = test system: SK-MEL-2 melanoma
786-0 renal = test system: 786-0 renal
NCI-H460 lung = test system: NCI-H460 lung
UO-31 renal = test system: UO-31 renal
UACC-62 melanoma = test system: UACC-62 melanoma
M14 melanoma = test system: M14 melanoma
DU-145 prostate = test system: DU-145 prostate
SNB-19 CNS = test system: SNB-19 CNS
SW-620 colon = test system: SW-620 colon
RPMI-8226 leukemia = test system: RPMI-8226 leukemia
OVCAR-3 ovarian = test system: OVCAR-3 ovarian
CAKI-1 renal = test system: CAKI-1 renal
A549 NSCLC = test system: A549 NSCLC
HCT-116 colon = test system: HCT-116 colon
HT29 colon = test system: HT29 colon
MOLT-4 leukemia = test system: MOLT-4 leukemia
RXF 393 renal = test system: RXF 393 renal
MDA-MB-435 = test system: MDA-MB-435
UACC-257 melanoma = test system: UACC-257 melanoma
MDA-MB-468 breast = test system: MDA-MB-468 breast
COLO 205 colon = test system: COLO 205 colon
SK-MEL-5 melanoma = test system: SK-MEL-5 melanoma
SK-OV-3 ovarian = test system: SK-OV-3 ovarian
MALME-3M melanoma = test system: MALME-3M melanoma
NCI-H522 lung = test system: NCI-H522 lung
SF-268 CNS = test system: SF-268 CNS
K-562 leukemia = test system: K-562 leukemia
A498 renal = test system: A498 renal
OVCAR-4 ovarian = test system: OVCAR-4 ovarian
SF-295 CNS = test system: SF-295 CNS
LOX IMVI melanoma = test system: LOX IMVI melanoma
IGROV1 ovarian = test system: IGROV1 ovarian
CCRF-CEM leukemia = test system: CCRF-CEM leukemia
HOP-62 NSCLC = test system: HOP-62 NSCLC
HCC-2998 colon = test system: HCC-2998 colon
T-47D breast = test system: T-47D breast
SK-MEL-28 melanoma = test system: SK-MEL-28 melanoma
OVCAR-5 ovarian = test system: OVCAR-5 ovarian
KM12 colon = test system: KM12 colon
SNB-75 CNS = test system: SNB-75 CNS
HS 578T breast = test system: HS 578T breast
TK-10 renal = test system: TK-10 renal
NCI-H226 lung = test system: NCI-H226 lung
SF-539 CNS = test system: SF-539 CNS
ACHN renal = test system: ACHN renal

SMILES: CN(C)c1ccnc(CNCCSC2(c3ccccc3)c3ccccc3C=Cc3ccccc32)c1
- GI50 (SR leukemia): 0.798 µM
- TGI (SR leukemia): 5.04 µM
- GI50 (U251 CNS): 0.38 µM
- TGI (U251 CNS): 1.6 µM
- GI50 (HCT-15 colon): 0.52 µM
- TGI (HCT-15 colon): 11.4 µM
- GI50 (SN12C renal): 1.39 µM
- TGI (SN12C renal): 6.53 µM
- GI50 (HOP-92 NSCLC): 1.25 µM
- TGI (HOP-92 NSCLC): 5.18 µM
- GI50 (BT-549 breast): 1.91 µM
- TGI (BT-549 breast): 5 µM
- GI50 (EKVX NSCLC): 2.44 µM
- TGI (EKVX NSCLC): 13.9 µM
- GI50 (PC-3 prostate): 1.31 µM
- TGI (PC-3 prostate): 6.91 µM
- GI50 (MCF7 breast): 0.419 µM
- TGI (MCF7 breast): 2.39 µM
- GI50 (MDA-MB-231 breast): 1.46 µM
- TGI (MDA-MB-231 breast): 3.63 µM
- GI50 (NCI-H23 lung): 2.57 µM
- TGI (NCI-H23 lung): 7.46 µM
- GI50 (SK-MEL-2 melanoma): 2.2 µM
- TGI (SK-MEL-2 melanoma): 4.89 µM
- GI50 (786-0 renal): 1.62 µM
- TGI (786-0 renal): 3.98 µM
- GI50 (NCI-H460 lung): 1.61 µM
- TGI (NCI-H460 lung): 3.13 µM
- GI50 (UO-31 renal): 2.16 µM
- TGI (UO-31 renal): 11.4 µM
- GI50 (UACC-62 melanoma): 2.17 µM
- TGI (UACC-62 melanoma): 5.39 µM
- GI50 (M14 melanoma): 0.71 µM
- TGI (M14 melanoma): 2.5 µM
- GI50 (DU-145 prostate): 2.85 µM
- TGI (DU-145 prostate): 8.11 µM
- GI50 (SNB-19 CNS): 3.75 µM
- TGI (SNB-19 CNS): 15.2 µM
- GI50 (SW-620 colon): 0.579 µM
- TGI (SW-620 colon): 2.26 µM
- GI50 (RPMI-8226 leukemia): 1.62 µM
- TGI (RPMI-8226 leukemia): 5.44 µM
- GI50 (OVCAR-3 ovarian): 1.73 µM
- TGI (OVCAR-3 ovarian): 4.87 µM
- GI50 (CAKI-1 renal): 2.29 µM
- TGI (CAKI-1 renal): 12.3 µM
- GI50 (A549 NSCLC): 0.556 µM
- TGI (A549 NSCLC): 5.83 µM
- GI50 (HCT-116 colon): 0.526 µM
- TGI (HCT-116 colon): 2.1 µM
- GI50 (HT29 colon): 1.69 µM
- TGI (HT29 colon): 3.92 µM
- GI50 (MOLT-4 leukemia): 2.49 µM
- TGI (MOLT-4 leukemia): 12.4 µM
- GI50 (RXF 393 renal): 1.25 µM
- TGI (RXF 393 renal): 4.5 µM
- GI50 (MDA-MB-435): 0.215 µM
- TGI (MDA-MB-435): 0.495 µM
- GI50 (UACC-257 melanoma): 1.79 µM
- TGI (UACC-257 melanoma): 4.18 µM
- GI50 (MDA-MB-468 breast): 0.46 µM
- TGI (MDA-MB-468 breast): 2.06 µM
- GI50 (COLO 205 colon): 1.61 µM
- TGI (COLO 205 colon): 3.11 µM
- GI50 (SK-MEL-5 melanoma): 1.46 µM
- TGI (SK-MEL-5 melanoma): 2.78 µM
- GI50 (SK-OV-3 ovarian): 2.8 µM
- TGI (SK-OV-3 ovarian): 9.04 µM
- GI50 (MALME-3M melanoma): 1.54 µM
- TGI (MALME-3M melanoma): 3.16 µM
- GI50 (NCI-H522 lung): 1.4 µM
- TGI (NCI-H522 lung): 3.36 µM
- GI50 (SF-268 CNS): 1.86 µM
- TGI (SF-268 CNS): 7.62 µM
- GI50 (K-562 leukemia): 0.38 µM
- TGI (K-562 leukemia): > 100 µM
- GI50 (A498 renal): 9.97 µM
- TGI (A498 renal): 25.3 µM
- GI50 (OVCAR-4 ovarian): 3.56 µM
- TGI (OVCAR-4 ovarian): 16 µM
- GI50 (SF-295 CNS): 1.8 µM
- TGI (SF-295 CNS): 5.18 µM
- GI50 (LOX IMVI melanoma): 1.43 µM
- TGI (LOX IMVI melanoma): 2.77 µM
- GI50 (IGROV1 ovarian): 2.94 µM
- TGI (IGROV1 ovarian): 17.1 µM
- GI50 (CCRF-CEM leukemia): 0.681 µM
- TGI (CCRF-CEM leukemia): 11.9 µM
- GI50 (HOP-62 NSCLC): 2.16 µM
- TGI (HOP-62 NSCLC): 8.1 µM
- GI50 (HCC-2998 colon): 1.41 µM
- TGI (HCC-2998 colon): 2.98 µM
- GI50 (T-47D breast): 2.48 µM
- TGI (T-47D breast): 9.26 µM
- GI50 (SK-MEL-28 melanoma): 2.02 µM
- TGI (SK-MEL-28 melanoma): 4.11 µM
- GI50 (OVCAR-5 ovarian): 2.45 µM
- TGI (OVCAR-5 ovarian): 7.64 µM
- GI50 (KM12 colon): 1.44 µM
- TGI (KM12 colon): 3.24 µM
- GI50 (SNB-75 CNS): 1.56 µM
- TGI (SNB-75 CNS): 6.29 µM
- GI50 (HS 578T breast): 1.99 µM
- TGI (HS 578T breast): 5.92 µM
- GI50 (TK-10 renal): 3.09 µM
- TGI (TK-10 renal): 14.8 µM
- GI50 (NCI-H226 lung): 2.46 µM
- TGI (NCI-H226 lung): 8.8 µM
- GI50 (SF-539 CNS): 1.47 µM
- TGI (SF-539 CNS): 2.83 µM
- GI50 (ACHN renal): 1.44 µM
- TGI (ACHN renal): 12.2 µM
